Results from PMC11370357 (bioRxiv, 2024).
pEC50: −log10 of the molar value.

Target: T1, GPRC6A (Homo sapiens, UniProt Q5T6X5)
T1 sequence (Q5T6X5 19-926): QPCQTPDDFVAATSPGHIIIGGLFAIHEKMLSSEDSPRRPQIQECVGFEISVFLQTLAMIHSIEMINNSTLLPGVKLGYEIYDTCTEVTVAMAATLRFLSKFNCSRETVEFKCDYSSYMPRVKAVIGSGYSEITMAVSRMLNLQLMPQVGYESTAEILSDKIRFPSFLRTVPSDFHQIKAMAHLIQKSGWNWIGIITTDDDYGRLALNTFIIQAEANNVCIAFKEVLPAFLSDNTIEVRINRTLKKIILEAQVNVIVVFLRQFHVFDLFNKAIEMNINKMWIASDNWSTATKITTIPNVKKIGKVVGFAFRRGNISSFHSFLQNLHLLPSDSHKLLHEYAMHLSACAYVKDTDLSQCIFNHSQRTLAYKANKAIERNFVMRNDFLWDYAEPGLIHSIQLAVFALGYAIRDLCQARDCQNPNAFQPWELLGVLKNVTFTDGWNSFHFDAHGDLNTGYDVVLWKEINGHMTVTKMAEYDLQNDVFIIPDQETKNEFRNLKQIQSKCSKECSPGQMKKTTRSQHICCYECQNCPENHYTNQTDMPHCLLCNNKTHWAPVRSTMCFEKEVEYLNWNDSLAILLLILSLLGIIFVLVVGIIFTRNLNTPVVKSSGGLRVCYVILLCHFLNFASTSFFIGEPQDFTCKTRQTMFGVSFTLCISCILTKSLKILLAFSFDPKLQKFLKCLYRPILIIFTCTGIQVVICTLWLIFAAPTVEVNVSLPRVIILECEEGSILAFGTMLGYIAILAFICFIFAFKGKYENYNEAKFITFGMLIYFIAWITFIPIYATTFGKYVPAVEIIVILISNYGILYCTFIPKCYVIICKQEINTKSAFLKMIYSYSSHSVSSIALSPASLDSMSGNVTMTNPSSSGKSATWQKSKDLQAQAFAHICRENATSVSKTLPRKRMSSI
Assay type: cell-based

`CN(C)C(=N)N=C(N)N` [metformin, 1,1-dimethylbiguanide] gave a pEC50 of 3.55.
